Where two headings read alike, the source gives them in different places.
Experiments:
[1] = Plasma and brain pharmacokinetics in Sprague Dawley rats; type: in vivo
Description: Blood samples were collected into labeled microtubes containing dipotassium EDTA solution (20%) as an anticoagulant. Plasma was immediately harvested from the blood by centrifugation at 4000 rpm for 10 min at 4 ± 2 °C and stored below −70 °C until bioanalysis. After isolation, brain tissue samples were rinsed three times in ice cold normal saline (for 5–10 s/rinse using ~5–10 mL normal saline in disposable petri dishes for each rinse) and dried on blotting paper. Tissue samples were homogenized using ice-cold phosphate-buffered saline (pH 7.4). The total homogenate volume (µL) was three times the tissue weight (mg). All homogenates were stored below −70 ± 10 °C until bioanalysis. Concentrations of TG15-132 in plasma and brain samples were determined by fit-for-purpose liquid chromatography with the tandem mass spectrometry method (Sai-Life, Hyderabad, India). Phoenix WinNonlin (version 8.0, Certara, Princeton, NJ, USA) was used to analyze the pharmacokinetic parameters.
Rapid metabolism and the inability to cross the BBB represent major obstacles in the application of bioactive agents in neurodegenerative diseases. Based on the premise that Nox2 plays a major role in oxidative damage and exacerbates neurodegenerative diseases, we envision applications of brain-permeable Nox2 inhibitors in mechanistic studies in vivo, and, long-term, in the development of novel therapeutic strategies. Therefore, we performed in vivo pharmacokinetics studies to determine the time profile of plasma concentration and accumulation of TG15-132 in the brain tissue of Sprague Dawley rats and C57BL6 mice.

Nox2 = biological target: T1, Nox2 (Homo sapiens, UniProt P04839); assay: CBA probe assay of H2O2 production by PMA-activated dHL60 cells; type: cell-based; conditions: PMA (1 µM)-activated dHL60 cells, 30 min preincubation with inhibitor; read-out: IC50, inhibition of H2O2 production, CBA Assay
T1 construct: endogenous in cells
T1 sequence (P04839 2-570 limits assumed): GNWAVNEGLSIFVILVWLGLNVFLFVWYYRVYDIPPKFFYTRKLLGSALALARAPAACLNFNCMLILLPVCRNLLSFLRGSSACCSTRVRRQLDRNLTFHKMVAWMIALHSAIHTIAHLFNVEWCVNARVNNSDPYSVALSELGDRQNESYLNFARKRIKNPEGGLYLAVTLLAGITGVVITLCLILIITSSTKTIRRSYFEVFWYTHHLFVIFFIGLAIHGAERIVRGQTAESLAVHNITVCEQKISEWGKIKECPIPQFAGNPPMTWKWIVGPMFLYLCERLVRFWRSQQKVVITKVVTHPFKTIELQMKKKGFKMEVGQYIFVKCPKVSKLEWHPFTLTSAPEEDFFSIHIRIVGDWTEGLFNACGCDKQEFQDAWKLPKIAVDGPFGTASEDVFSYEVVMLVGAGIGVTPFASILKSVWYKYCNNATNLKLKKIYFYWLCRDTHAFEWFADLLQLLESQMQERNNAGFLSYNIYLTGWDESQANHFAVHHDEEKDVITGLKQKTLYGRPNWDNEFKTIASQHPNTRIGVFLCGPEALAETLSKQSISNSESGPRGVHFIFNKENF
T1 sequence (P13498 2-195 partner limits assumed): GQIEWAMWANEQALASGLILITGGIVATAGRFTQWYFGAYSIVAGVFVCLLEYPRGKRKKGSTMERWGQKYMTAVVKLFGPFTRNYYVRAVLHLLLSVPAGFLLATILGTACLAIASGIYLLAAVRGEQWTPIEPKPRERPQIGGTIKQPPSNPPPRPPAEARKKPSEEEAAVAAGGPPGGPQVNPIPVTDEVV
Description: Human promyelocytic leukemia HL60 cells (Sigma-Aldrich) were grown in RPMI 1640 medium (Gibco, 11875-093, Billings, MT, USA) supplemented with 10% FBS (Omega Scientific (Tarzana, CA, USA)), 100 units/mL penicillin, and 100 µg/mL streptomycin, and were incubated at 37 °C and 5% carbon dioxide (CO2). For differentiation to neutrophil-like cells, HL60 cells were pelleted and resuspended in fresh media containing 1 µM of all trans-retinoic acid and incubated for four to five days. Nox2 activation was achieved by treating differentiated HL60 (dHL60) cells with 1 µM PMA [24]. Human leukemia monocytic cells, THP-1, were grown in RPMI 1640 medium + GlutaMAX^TM (Gibco, 61870-036) and supplemented with 10% FBS, 10 mM HEPES, and 1 mM sodium pyruvate and incubated at 37 °C in 5% CO2 environment. To induce differentiation into macrophages, THP-1 cells were treated with PMA (100 ng/mL) for 48 h. To test the efficacy of Nox2 inhibitors, treatment was performed with or without the inhibitor, along with PMA [35].
Plate reader-based analyses of the production of O2^•− and H2O2 by PMA-activated dHL60 cells were performed according to a published protocol with minor modifications. Briefly, for the treatment of dHL60 cells with different concentrations of the compounds, 0.5 mL deep-well 96-well plates were used to dispense and store aliquots of their 10 mM DMSO solutions. Using a Multidrop™ PicoIT dispenser (Thermo Scientific), different volumes of the solutions of candidate Nox inhibitors (10 or 50 mM in DMSO) were injected into the bottom of 0.5 mL V-bottom 96-well plates; then, they were sealed with aluminum foil (VWR, Batavia, IL, USA) using a semiautomatic thermal sealer (BT LabSystems, St. Louis, MO, USA) and stored at −20 °C to reduce freeze-thawing the solutions. The plates with inhibitors were allowed to come to room temperature before the addition of the cell suspensions. dHL60 cells were pelleted and resuspended in HBSS (Invitrogen, Waltham, MA, USA) supplemented with 25 mM HEPES (pH 7.4) and 100 µM DTPA to a cell density of 2 × 10^5 cells/mL. dHL60 cells were added to the V-bottom plates at a volume of 210 µL/well. Next, cells were incubated with inhibitors for 30 min at 37 °C in a CO2-free incubator under ambient oxygen and then transferred to black, clear-bottom 96-well plates (200 µL/well) after incubation. Freshly prepared PMA plus probe solutions in HBSS (5× concentrated, 50 µL/well) included PMA (5 µM) with CBA (500 µM) or with Amplex Red (250 µM) plus HRP (0.5 U/mL) for H2O2 detection, or with HE (50 µM) plus DNA (0.5 mg/mL) for O2^•− detection. Once probes + PMA were added, plates were sealed with sealing film and immediately placed in the pre-warmed plate readers (37 °C). Fluorescence intensities were monitored kinetically from the bottom of the plates every 1.3 min for a period of 2 h using Beckman Coulter (Brea, CA, USA) DTX880 and BMG Labtech (Ortenberg, Germany) FLUOstar Omega plate readers. DMSO alone and DPI (10 µM) were used as negative and positive controls, respectively. […] The IC50 values were determined using at least five independent measurements, each consisting of technical quadruplicates per concentration.

**Q.** Which results are given for `CN(C)CCCn1c(SCCc2c[nH]c3ccccc23)nc2ccc(F)cc2c1=O` [TG15-132]?
**A.** Kp at 8 h ([1]; rat, brain, ip, 20 mg/kg i.p., up to 8 h after administration, read-out: brain-to-plasma ratio): > 10; half-life ([1]; rat, brain, ip, single dose 20 mg/kg i.p., read-out: brain half-life (converted)): 5.6 h; AUC(0-inf) ([1]; rat, plasma, ip, single dose 20 mg/kg i.p.): 10200 ng·h/mL; half-life ([1]; rat, plasma, ip, single dose 20 mg/kg i.p., read-out: plasma half-life (converted)): 3.7 h; clearance rate ([1]; single dose 20 mg/kg i.p.): 32.8 mL/min/kg; IC50 (Nox2): 4.3 ± 1.3 µM
